Laboratory results as given in patent publication US10194660B2, “Herbicidal compounds” (Syngenta Participations AG, priority 2015, dated 2019).

How the values were obtained:
Format in all cases: in vivo
[1] = system: Solanum nigrum (SOLNI); experiment: Pre-emergence herbicidal glasshouse test; conditions: applied at 250 g/ha, evaluated after 13 days, five point scale
Procedure: (§1) Seeds of a variety of test species are sown in standard soil in pots (Lolium perenne (LOLPE), Solanum nigrum (SOLNI), Amaranthus retoflexus (AMARE), Setaria faberi (SETFA), Echinochloa crus-galli (ECHCG), Ipomoea hederacea (IPOHE)). After cultivation for one day (pre-emergence) or after 8 days cultivation (post-emergence) under controlled conditions in a glasshouse (at 24/16° C., day/night; 14 hours light; 65% humidity), the plants are sprayed with an aqueous spray solution derived from the formulation of the technical active ingredient in acetone/water (50:50) solution containing 0.5% Tween 20 (polyoxyethelyene sorbitan monolaurate, CAS RN 9005-64-5). Compounds are applied at 500 g/h unless otherwise stated. The test plants are then grown in a glasshouse under controlled conditions in a glasshouse (at 24/16° C., day/night; 14 hours light; 65% humidity) and watered twice daily. After 13 days for pre and post-emergence, the test is evaluated for the percentage damage caused to the plant. The biological activities are shown in the following table on a five point scale (5=80-100%; 4=60-79%; 3=40-59%; 2=20-39%; 1=0-19%).

[2] = system: Lolium perenne (LOLPE); experiment: Pre-emergence herbicidal glasshouse test; conditions: applied at 250 g/ha, evaluated after 13 days, five point scale
Procedure: as §1

[3] = system: Amaranthus retoflexus (AMARE); experiment: Pre-emergence herbicidal glasshouse test; conditions: evaluated after 13 days, five point scale
Procedure: as §1

[4] = system: Setaria faberi (SETFA); experiment: Pre-emergence herbicidal glasshouse test; conditions: evaluated after 13 days, five point scale
Procedure: as §1

[5] = system: Echinochloa crus-galli (ECHCG); experiment: Pre-emergence herbicidal glasshouse test; conditions: evaluated after 13 days, five point scale
Procedure: as §1

[6] = system: Ipomoea hederacea (IPOHE); experiment: Pre-emergence herbicidal glasshouse test; conditions: evaluated after 13 days, five point scale
Procedure: as §1

[7] = system: Solanum nigrum (SOLNI); experiment: Post-emergence herbicidal glasshouse test; conditions: applied at 250 g/ha, evaluated after 13 days, five point scale
Procedure: as §1

[8] = system: Lolium perenne (LOLPE); experiment: Post-emergence herbicidal glasshouse test; conditions: applied at 250 g/ha, evaluated after 13 days, five point scale
Procedure: as §1

[9] = system: Amaranthus retoflexus (AMARE); experiment: Post-emergence herbicidal glasshouse test; conditions: evaluated after 13 days, five point scale
Procedure: as §1

[10] = system: Setaria faberi (SETFA); experiment: Post-emergence herbicidal glasshouse test; conditions: evaluated after 13 days, five point scale
Procedure: as §1

[11] = system: Echinochloa crus-galli (ECHCG); experiment: Post-emergence herbicidal glasshouse test; conditions: evaluated after 13 days, five point scale
Procedure: as §1

[12] = system: Ipomoea hederacea (IPOHE); experiment: Post-emergence herbicidal glasshouse test; conditions: evaluated after 13 days, five point scale
Procedure: as §1

SMILES	percentage damage caused to the plant, PRE Application SOLNI [1]	percentage damage caused to the plant, PRE Application LOLPE [2]	percentage damage caused to the plant, PRE Application AMARE ([3]; applied at 250 g/ha)	percentage damage caused to the plant, PRE Application SETFA ([4]; applied at 250 g/ha)	percentage damage caused to the plant, PRE Application ECHCG ([5]; applied at 250 g/ha)	percentage damage caused to the plant, PRE Application IPOHE ([6]; applied at 250 g/ha)	percentage damage caused to the plant, POST Application SOLNI [7]	percentage damage caused to the plant, POST Application LOLPE [8]	percentage damage caused to the plant, POST Application AMARE ([9]; applied at 250 g/ha)	percentage damage caused to the plant, POST Application SETFA ([10]; applied at 250 g/ha)	percentage damage caused to the plant, POST Application ECHCG ([11]; applied at 250 g/ha)	percentage damage caused to the plant, POST Application IPOHE ([12]; applied at 250 g/ha)	percentage damage caused to the plant, PRE Application AMARE ([3]; applied)	percentage damage caused to the plant, PRE Application SETFA ([4]; applied at 500 g/h)	percentage damage caused to the plant, PRE Application ECHCG ([5]; applied at 500 g/h)	percentage damage caused to the plant, PRE Application IPOHE ([6]; applied at 500 g/h)	percentage damage caused to the plant, POST Application AMARE ([9]; applied at 500 g/h)	percentage damage caused to the plant, POST Application SETFA ([10]; applied at 500 g/h)	percentage damage caused to the plant, POST Application ECHCG ([11]; applied at 500 g/h)	percentage damage caused to the plant, POST Application IPOHE ([12]; applied at 500 g/h)
Cn1nnnc1NC(=O)c1cc2cnc(C(F)(F)F)nc2c(-c2ccccc2)c1C(F)(F)F [Compound 1.001]	5 (5=80-100%)	1 (1=0-19%)	5 (5=80-100%)	3 (3=40-59%)	5 (5=80-100%)	4 (4=60-79%)	5 (5=80-100%)	4 (4=60-79%)	5 (5=80-100%)	5 (5=80-100%)	5 (5=80-100%)	5 (5=80-100%)	–	–	–	–	–	–	–	–
Cc1c(C(=O)Nc2nnnn2C)cc2cnc(C(F)(F)F)nc2c1-c1ccccc1 [Compound 1.006]	–	–	–	–	–	–	–	–	–	–	–	–	5 (5=80-100%)	5 (5=80-100%)	2 (2=20-39%)	3 (3=40-59%)	5 (5=80-100%)	5 (5=80-100%)	5 (5=80-100%)	5 (5=80-100%)
Cn1nnnc1NC(=O)c1cc2cnc(C(F)(F)F)nc2c(-c2ccccc2)c1Cl [Compound 1.021]	–	–	–	–	–	–	–	–	–	–	–	–	5 (5=80-100%)	5 (5=80-100%)	5 (5=80-100%)	5 (5=80-100%)	5 (5=80-100%)	5 (5=80-100%)	5 (5=80-100%)	5 (5=80-100%)
Cn1nnnc1NC(=O)c1cc2cnc(C3CC3)nc2c(-c2ccccc2)c1Cl [Compound 1.028]	–	–	–	–	–	–	–	–	–	–	–	–	5 (5=80-100%)	5 (5=80-100%)	5 (5=80-100%)	3 (3=40-59%)	5 (5=80-100%)	5 (5=80-100%)	5 (5=80-100%)	5 (5=80-100%)
CC(C)c1ncc2cc(C(=O)Nc3nnnn3C)c(Cl)c(-c3ccccc3)c2n1 [Compound 1.035]	–	–	–	–	–	–	–	–	–	–	–	–	5 (5=80-100%)	5 (5=80-100%)	5 (5=80-100%)	4 (4=60-79%)	5 (5=80-100%)	5 (5=80-100%)	5 (5=80-100%)	5 (5=80-100%)
Cn1nnnc1NC(=O)c1cc2cncnc2c(-c2ccccc2)c1Cl [Compound 1.042]	–	–	–	–	–	–	–	–	–	–	–	–	5 (5=80-100%)	5 (5=80-100%)	5 (5=80-100%)	5 (5=80-100%)	5 (5=80-100%)	5 (5=80-100%)	5 (5=80-100%)	5 (5=80-100%)
